According to patent publication US11492375B2, “Cyclic peptide immunomodulators” (Bristol-Myers Squibb Company, priority 2017, dated 2022):

What follows are molecules tested against PD-1-Ig binding to PD-L1-TVMV-His (PD-L1-His) (Homo sapiens (Human), UniProt Q9NZQ7) (assay: PD-1/PD-L1 Homogenous Time-Resolved Fluorescence (HTRF) binding assay). Conditions: PD-1-Ig/PD-L1-His binding; value given as range class; read-out: HTRF IC50 (μM) or Range.
PD-1-Ig binding to PD-L1-TVMV-His (PD-L1-His), sequence (Q9NZQ7 other isoform, or with tags, fused parts or gaps): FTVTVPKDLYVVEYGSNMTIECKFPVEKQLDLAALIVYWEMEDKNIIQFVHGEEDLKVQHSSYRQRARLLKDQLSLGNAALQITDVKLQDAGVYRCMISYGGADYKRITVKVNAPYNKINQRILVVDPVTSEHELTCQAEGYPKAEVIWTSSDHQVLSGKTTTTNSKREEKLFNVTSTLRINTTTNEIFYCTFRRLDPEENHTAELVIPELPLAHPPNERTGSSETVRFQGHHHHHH
Source text: The ability of the macrocyclic peptides of the present disclosure to bind to PD-L1 was investigated using a PD-1/PD-L1 Homogenous Time-Resolved Fluorescence (HTRF) binding assay.
Homogenous Time-Resolved Fluorescence (HTRF) Assays of Binding of Soluble PD-1 to Soluble PD-L1. Soluble PD-1 and soluble PD-L1 refers to proteins with carboxyl-end truncations that remove the transmembrane-spanning regions and are fused to heterologous sequences, specifically the Fc portion of the human immunoglobuling G sequence (Ig) or the hexahistidine epitope tag (His). All binding studies were performed in an HTRF assay buffer consisting of dPBS supplemented with 0.1% (w/v) bovine serum albumin and 0.05% (v/v) Tween-20. For the PD-1-Ig/PD-L1-His binding assay, inhibitors were pre-incubated with PD-L1-His (10 nM final) for 15m in 4 μl of assay buffer, followed by addition of PD-1-Ig (20 nM final) in 1 μl of assay buffer and further incubation for 15 m. PD-L1 fusion proteins from either human, cynomologous macaques, mouse, or other species were used. HTRF detection was achieved using europium crypate-labeled anti-Ig monoclonal antibody (1 nM final) and allophycocyanin (APC) labeled anti-His monoclonal antibody (20 nM final). Antibodies were diluted in HTRF detection buffer and 5 μl was dispensed on top of binding reaction. The reaction was allowed to equilibrate for 30 minutes and signal (665 nm/620 nm ratio) was obtained using an EnVision fluorometer. Additional binding assays were established between PD-1-Ig/PD-L2-His (20 and 5 nM, respectively), CD8O-His/PD-L1-Ig (100 and 10 nM, respectively) and CD80-His/CTLA4-Ig (10 and 5 nM, respectively). Binding/competition studies between biotinylated Compound No. 71 and human PD-L1-His were performed as follows. Macrocyclic peptide inhibitors were pre-incubated with PD-L1-His (10 nM final) for 60 minutes in 4 μl of assay buffer followed by addition of biotinylated Compound No. 71 (0.5 nM final) in 1 μl of assay buffer. Binding was allowed to equilibrate for 30 minutes followed by addition of europium crypated labeled Streptavidin (2.5 pM final) and APC-labeled anti-His (20 nM final) in 5 μl of HTRF buffer. The reaction was allowed to equilibrate for 30 m and signal (665 nm/620 nm ratio) was obtained using an EnVision fluorometer.
Recombinant Proteins. Carboxyl-truncated human PD-1 (amino acids 25-167) with a C-terminal human Ig epitope tag [hPD-1 (25-167)-35-IG] and human PD-L1 (amino acids 18-239) with a C-terminal His epitope tag [hPD-L1(19-239)-tobacco vein mottling virus protease cleavage site (TVMV)-His] were expressed in HEK293T cells and purified sequentially by recombinant Protein A affinity chromatography and size exclusion chromatography. Human PD-L2-His (Sino Biologicals), CD80-His (Sino Biologicals), CTLA4-Ig (RnD Systems) were all obtained through commercial sources.
CC(C)C[C@@H]1NC(=O)[C@H](CN)NC(=O)[C@@H]2CCCN2C(=O)[C@H](CC(N)=O)NC(=O)[C@H](C)N(C)C(=O)[C@H](Cc2ccc(O)cc2)NC(=O)CSC[C@H](C(=O)NCC(N)=O)NC(=O)[C@@H](CCCNC(=N)N)NC(=O)[C@@H]2CCCC/C=C\CCCC[C@@H](C(=O)N2C)N(C)C(=O)[C@H](Cc2c[nH]c3ccccc23)NC(=O)[C@H](CO)NC(=O)[C@@H](Cc2c[nH]c3ccccc23)NC(=O)[C@@H]2C[C@@H](O)CN2C1=O [Example 1109] gave an IC50 of 0.002 to 0.0099 µM.
With CC(C)C[C@@H]1NC(=O)[C@H](Cc2cnc[nH]2)NC(=O)[C@@H]2CCCN2C(=O)[C@H](CC(N)=O)NC(=O)[C@H](C)N(C)C(=O)[C@H](Cc2ccccc2)NC(=O)CSC[C@@H](C(=O)NCC(N)=O)NC(=O)[C@H](CCCNC(=N)N)NC(=O)[C@@H]2CCCC/C=C/CCCC[C@@H](C(=O)N2C)N(C)C(=O)[C@H](Cc2c[nH]c3ccccc23)NC(=O)[C@H](CO)NC(=O)[C@H](Cc2c[nH]c3ccccc23)NC(=O)CN(C)C1=O [Example 1001] the IC50 was 0.01 to 0.099 µM.
For C[C@@H]1NC(=O)[C@@H]2CCCC/C=C\CCCC[C@@H](C(=O)N2C)N(C)C(=O)[C@H](Cc2c[nH]c3ccccc23)NC(=O)[C@H](CO)NC(=O)[C@H](Cc2c[nH]c3ccccc23)NC(=O)[C@@H]2C[C@@H](O)CN2C(=O)[C@H](CCC(N)=O)NC(=O)[C@H](CN)NC(=O)[C@@H]2CCCN2C(=O)[C@H](CC(=O)O)NC(=O)[C@H](C)N(C)C(=O)[C@H](Cc2ccc(O)cc2)NC(=O)CSC[C@@H](C(=O)NCC(N)=O)NC1=O [Example 1112], the IC50 was 0.002 to 0.0099 µM.
In the case of CC(C)C[C@@H]1NC(=O)[C@H](Cc2cnc[nH]2)NC(=O)[C@@H]2CCCN2C(=O)[C@H](CC(N)=O)NC(=O)[C@H](C)N(C)C(=O)[C@H](Cc2ccc(O)cc2)NC(=O)CSC[C@@H](C(=O)NCC(N)=O)NC(=O)[C@H](CCCNC(=N)N)NC(=O)[C@@H]2CC/C=C\CC[C@@H](C(=O)N2C)N(C)C(=O)[C@H](Cc2c[nH]c3ccccc23)NC(=O)[C@H](CO)NC(=O)[C@H](Cc2c[nH]c3ccccc23)NC(=O)[C@@H]2C[C@@H](O)CN2C1=O [Example 1102], the IC50 is reported as 0.1 to 2 µM.
Molecule C[C@H]1C(=O)N[C@@H](CC(=O)O)C(=O)N2CCC[C@H]2C(=O)N[C@@H](CN)C(=O)N[C@@H](CCC(=O)O)C(=O)N2C[C@H](O)C[C@H]2C(=O)N[C@@H](Cc2c[nH]c3ccccc23)C(=O)N[C@@H](CO)C(=O)N[C@@H](Cc2c[nH]c3ccccc23)C(=O)N(C)[C@H]2CCC/C=C\CCCC[C@@H](C(=O)N[C@@H](CCC(=O)O)C(=O)N[C@H](C(=O)NCC(N)=O)CSCC(=O)N[C@@H](Cc3ccc(O)cc3)C(=O)N1C)N(C)C2=O [Example 1116] has an IC50 of 0.01 to 0.099 µM.
CC(C)C[C@@H]1NC(=O)[C@H](Cc2cnc[nH]2)NC(=O)[C@@H]2CCCN2C(=O)[C@H](CC(N)=O)NC(=O)[C@H](C)N(C)C(=O)[C@H](Cc2ccccc2)NC(=O)CSC[C@@H](C(=O)NCC(N)=O)NC(=O)[C@H](CCCNC(=N)N)NC(=O)[C@@H]2CCCCC/C=C/CCCCC[C@@H](C(=O)N2C)N(C)C(=O)[C@H](Cc2c[nH]c3ccccc23)NC(=O)[C@H](CO)NC(=O)[C@H](Cc2c[nH]c3ccccc23)NC(=O)CN(C)C1=O [Example 1002] gave an IC50 of 0.01 to 0.099 µM.
For CC(C)C[C@@H]1NC(=O)[C@H](Cc2c[nH]cn2)NC(=O)[C@@H]2CCCN2C(=O)[C@H](CC(N)=O)NC(=O)[C@@H]2COCCN2C(=O)[C@H](Cc2ccc(O)cc2)NC(=O)CSC[C@H](C(=O)NCC(N)=O)NC(=O)[C@@H](C)NC(=O)[C@@H]2CCC/C=C\CCC[C@@H](C(=O)N2C)N(C)C(=O)[C@H](Cc2c[nH]c3ccccc23)NC(=O)[C@H](CO)NC(=O)[C@@H](Cc2c[nH]c3ccccc23)NC(=O)[C@@H]2C[C@@H](O)CN2C1=O [Example 1110], the IC50 was 0.01 to 0.099 µM.
